Test results from ChEMBL document CHEMBL6182913, “Design of Potent Small-Molecule Stimulator of Interferon Gene Inhibitor and Stimulator of Interferon Gene Mutant-Specific Degrader” (J Med Chem, 2025).

Columns and labels:
[1] = molecular target: Stimulator of interferon genes protein (Homo sapiens, UniProt Q86WV6, G230A/R293Q/R71H); test: Inhibition of cGAMP-induced STING HAQ mutant transfected in human THP1-Blue ISG cells preincubated with compound for 6 hrs followed by cGAMP addition and measured after 18 hrs by QUANTI-Blue based microplate reader analysis; assay type: cell-based
Sequence of Stimulator of interferon genes protein (Q86WV6 whole entry R71H/G230A/R293Q): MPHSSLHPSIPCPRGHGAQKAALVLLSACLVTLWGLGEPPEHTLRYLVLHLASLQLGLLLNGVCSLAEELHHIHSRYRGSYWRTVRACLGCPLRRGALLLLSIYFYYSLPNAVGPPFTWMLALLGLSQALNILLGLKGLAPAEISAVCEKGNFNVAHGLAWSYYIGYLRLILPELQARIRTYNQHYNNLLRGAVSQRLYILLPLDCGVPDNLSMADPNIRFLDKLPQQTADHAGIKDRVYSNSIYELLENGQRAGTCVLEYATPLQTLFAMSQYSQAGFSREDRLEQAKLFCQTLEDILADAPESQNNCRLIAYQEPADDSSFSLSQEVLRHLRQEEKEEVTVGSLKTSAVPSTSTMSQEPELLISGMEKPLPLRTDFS

[2] = Cytotoxicity against human THP1-Blue ISG cells assessed as inhibition of cell growth at 10 uM incubated for 24 hrs by MTS assay relative to control; assay type: toxicity, cell-based
[3] = Metabolic stability in mouse plasma assessed as half life in presence of NADPH by LC-MS/MS analysis; assay type: ADME, cell-free

| IC50 [1] [µM] | half-life [3] [h] | Structure (SMILES) | inhibition at 24 h, 10 µM [2] [%] |
| --- | --- | --- | --- |
| 2.5 |  | CC(=O)Nc1cc(NC(=O)c2ccc(Oc3ccc(C4C(C(N)=O)c5ccccc5C(=O)N4c4ccc(C(C)(C)C)c(Cl)c4)cc3)cc2)ccc1O (configuration not stated) | 67.2 |
| 3.6 |  | CS(=O)(=O)Nc1cc(NC(=O)c2ccc(-c3ccc4oc(C5C(C(N)=O)c6ccccc6C(=O)N5c5ccccc5)cc4c3)cc2)ccc1O (configuration not stated) | 23 |
| 0.14 |  | CC(C)(C)c1ccc(N2C(=O)c3ccccc3C(C(N)=O)C2c2cc3cc(-c4ccc(C(=O)Nc5ccc(O)c(NS(C)(=O)=O)c5)cn4)ccc3o2)cc1Cl (configuration not stated) | 45.7 |
| > 10 |  | CC(C)(C)c1ccc(N2C(=O)c3ccccc3C(C(N)=O)C2c2cc3cc(-c4ccc(C(=O)Nc5cc(O)cc(NS(C)(=O)=O)c5)cc4)ccc3o2)cc1Cl (configuration not stated) | 46.2 |
| > 10 |  | CC(C)(C)c1ccc(N2C(=O)c3ccccc3C(C(N)=O)C2c2ccc(Oc3ccc(C(=O)Nc4ccc(O)c(NS(C)(=O)=O)c4)cc3)cc2)cc1Cl (configuration not stated) | 33.8 |
| > 10 |  | CC(C)(C)c1ccc(N2C(=O)c3ccccc3C(C(=O)O)C2c2cc3cc(-c4ccc(C(=O)Nc5ccc(O)c(NS(C)(=O)=O)c5)cc4)ccc3s2)cc1Cl (configuration not stated) | 0 |
| 0.54 |  | CS(=O)(=O)Nc1cc(NC(=O)c2ccc(-c3ccc4oc(C5C(C(N)=O)c6ccccc6C(=O)N5c5ccc6c(c5)CCCC6)cc4c3)cc2)ccc1O (configuration not stated) | 38.7 |
| > 10 |  | CC(C)(C)c1ccc(N2C(=O)c3ccccc3C(C(N)=O)C2c2cc3cc(-c4ccc(C(=O)Nc5ccc(F)c(NS(C)(=O)=O)c5)cc4)ccc3o2)cc1Cl (configuration not stated) | 26.8 |
| > 10 |  | CC(C)(C)c1ccc(N2C(=O)c3ccccc3C(C(N)=O)C2c2cc3cc(-c4ccc(C(=O)NC5CCN(S(C)(=O)=O)CC5)cc4)ccc3o2)cc1Cl (configuration not stated) | 35.2 |
| > 10 |  | CC(C)(C)c1ccc(N2C(=O)c3ccccc3C(C(N)=O)C2c2cc3cc(-c4ccc(NC(=O)c5cc(O)cc(NS(C)(=O)=O)c5)cc4)ccc3s2)cc1Cl (configuration not stated) | 50.2 |
| > 10 |  | CC(C)(C)c1ccc(N2C(=O)c3ccccc3C(C(N)=O)C2c2ccc(Oc3ccc(C(=O)Nc4ccc(NS(C)(=O)=O)cc4)cc3)cc2)cc1Cl (configuration not stated) | 13.7 |
| > 10 |  | CC(C)(C)c1ccc(N2C(=O)c3ccccc3C(C(N)=O)C2c2ccc3c(c2)C=C(c2ccc(C(=O)Nc4ccc(O)c(NS(C)(=O)=O)c4)cc2)S3(=O)=O)cc1Cl (configuration not stated) | 36.1 |
| 3.2 |  | CC(C)(C)c1ccc(N2C(=O)c3ccccc3C(C(N)=O)C2c2ccc(Oc3ccc(C(=O)Nc4cc(F)c(O)c(F)c4)cc3)cc2)cc1Cl (configuration not stated) | 44.5 |
| 0.27 |  | CS(=O)(=O)Nc1cc(NC(=O)c2ccc(-c3ccc4oc(C5C(C(N)=O)c6ccccc6C(=O)N5c5ccc(Br)c(Cl)c5)cc4c3)cc2)ccc1O (configuration not stated) | 65.1 |
| > 10 |  | CC(C)(C)c1ccc(N2C(=O)c3ccccc3C(C(N)=O)C2c2cc3cc(-c4ccc(C(=O)Nc5cc(-c6ccco6)n[nH]5)cc4)ccc3o2)cc1Cl (configuration not stated) | 17.8 |
| > 10 |  | CC(C)(C)c1ccc(N2C(=O)c3ccccc3C(C(N)=O)C2c2ccc(Oc3ccc(C(=O)Nc4ccc(O)cc4)cc3)cc2)cc1Cl (configuration not stated) | 29.4 |
| 0.1 |  | CC(C)(C)c1ccc(N2C(=O)c3ccccc3C(C(N)=O)C2c2cc3cc(-c4ccc(C(=O)Nc5ccc(O)c(NS(C)(=O)=O)c5)cc4)ccc3o2)cc1F (configuration not stated) | 55.6 |
| 0.95 |  | CC(C)(C)c1ccc(N2C(=O)c3cc(F)ccc3C(C(N)=O)C2c2ccc3sc(-c4ccc(C(=O)Nc5ccc(O)c(NS(C)(=O)=O)c5)cc4)cc3c2)cc1Cl (configuration not stated) | 7.7 |
| 0.2 | > 4 | CCS(=O)(=O)Nc1cc(NC(=O)c2ccc(-c3ccc4oc(C5C(C(N)=O)c6ccccc6C(=O)N5c5ccc(C(C)(C)C)c(Cl)c5)cc4c3)cc2)ccc1O (configuration not stated) | 11.1 |
| 6.5 |  | CN1C(=O)c2ccccc2C(C(N)=O)C1c1cc2cc(-c3ccc(C(=O)Nc4ccc(O)c(NS(C)(=O)=O)c4)cc3)ccc2o1 (configuration not stated) | 57.9 |
| > 10 |  | CC(C)(C)c1ccc(N2C(=O)c3ccccc3C(C(N)=O)C2c2cc3cc(-c4ccc(C(=O)N[C@H]5CC[C@H](O)CC5)cc4)ccc3o2)cc1Cl (some centres not stated) | 67 |
| 2.3 |  | CC(C)(C)c1ccc(N2C(=O)c3cc(F)ccc3C(C(N)=O)C2c2cc3cc(-c4ccc(C(=O)Nc5ccc(O)c(NC(=O)C(F)(F)F)c5)cc4)ccc3s2)cc1Cl (configuration not stated) | 12.5 |
| > 10 |  | CC(C)(C)c1ccc(N2C(=O)c3ccccc3C(C(N)=O)C2c2cc3cc(-c4ccc(C(=O)N[C@H]5CC[C@@H](O)CC5)cc4)ccc3o2)cc1Cl (some centres not stated) | 59.6 |
| > 10 |  | CC(C)(C)c1ccc(N2C(=O)c3ccccc3C(C(N)=O)C2c2cc3cc(-c4ccc(C(=O)Nc5ccc(N)c(NS(C)(=O)=O)c5)cc4)ccc3o2)cc1Cl (configuration not stated) | 28.5 |

Further lines, the compound ahead of its results:

| Structure (SMILES) | IC50 [1] [µM] | half-life [3] [h] | inhibition at 24 h, 10 µM [2] [%] |
| --- | --- | --- | --- |
| CC(C)(C)c1ccc(N2C(=O)c3cc(F)ccc3C(C(N)=O)C2C2=Cc3cc(-c4ccc(C(=O)Nc5ccc(O)c(NS(C)(=O)=O)c5)cc4)ccc3S2(=O)=O)cc1Cl (configuration not stated) | 0.72 |  | 12.7 |
| CC(C)(C)c1ccc(N2C(=O)c3cc(F)ccc3C(C(N)=O)C2c2ccc3sc(-c4ccc(C(=O)Nc5ccc(O)c(NS(C)(=O)=O)c5)cc4F)cc3c2)cc1Cl (configuration not stated) | 0.8 |  | 11.1 |
| CS(=O)(=O)Nc1cc(NC(=O)c2ccc(-c3ccc4oc(C5C(C(N)=O)c6ccccc6C(=O)N5c5ccc(C6CC6)c(Cl)c5)cc4c3)cc2)ccc1O (configuration not stated) | 0.11 |  | 61.5 |
| CC(C)(C)c1ccc(N2C(=O)c3ccccc3C(C(N)=O)C2c2ccc3sc(-c4ccc(C(=O)Nc5ccc(O)c(NS(C)(=O)=O)c5)cc4)cc3c2)cc1Cl (configuration not stated) | 0.18 |  | 3.9 |
| CC(C)(C)c1ccc(N2C(=O)c3ccccc3C(C(N)=O)C2c2cc3cc(-c4ccc(C(=O)Nc5ccc(O)c(NS(C)(=O)=O)c5)cc4)ccc3s2)cc1Cl (configuration not stated) | 0.44 |  | 15.9 |
| CC(=O)Nc1cc(NC(=O)c2ccc(Oc3ccc(C4C(C(N)=O)c5ccccc5C(=O)N4c4ccc(C(C)(C)C)c(Cl)c4)cc3)cc2)ccc1C (configuration not stated) | > 10 |  | 11.6 |
| CCC(=O)Nc1cc(NC(=O)c2ccc(Oc3ccc(C4C(C(N)=O)c5ccccc5C(=O)N4c4ccc(C(C)(C)C)c(Cl)c4)cc3)cc2)ccc1O (configuration not stated) | > 10 |  | 7.5 |
| CC(C)(C)c1ccc(N2C(=O)c3ccccc3C(C(N)=O)C2c2cc3cc(-c4ccc(C(=O)Nc5ccc(O)c(NC(=O)C(F)(F)F)c5)cc4)ccc3o2)cc1Cl (configuration not stated) | 5.8 |  | 4.9 |
| CC(C)(C)c1ccc(N2C(=O)c3ccccc3C(C(N)=O)C2c2cc3cc(-c4ncc(C(=O)Nc5ccc(O)c(NS(C)(=O)=O)c5)cn4)ccc3o2)cc1Cl (configuration not stated) | > 10 |  | 20.4 |
| CC(C)(C)c1ccc(N2C(=O)c3ccccc3C(C(N)=O)C2c2ccc(Oc3ccc(C(=O)Nc4ccc(CO)c(NS(C)(=O)=O)c4)cc3)cc2)cc1Cl (configuration not stated) | > 10 |  | 0 |
| CC(C)(C)c1ccc(N2C(=O)c3ccccc3C(C(N)=O)C2c2ccc3oc(-c4ccc(C(=O)Nc5ccc(O)c(NS(C)(=O)=O)c5)cc4)cc3c2)cc1Cl (configuration not stated) | 2.8 |  | 14 |
| CC(C)(C)c1ccc(N2C(=O)c3ccccc3C(C(N)=O)C2c2ccc(Nc3ccc(C(=O)Nc4ccc(O)c(NS(C)(=O)=O)c4)cc3)cc2)cc1Cl (configuration not stated) | 3.2 |  | 0 |
| CC(C)(C)c1ccc(N2C(=O)c3ccccc3C(C(N)=O)C2c2ccc(Oc3ccc(C(=O)Nc4cccc(NS(C)(=O)=O)c4)cc3)cc2)cc1Cl (configuration not stated) | > 10 |  | 10.5 |
| CS(=O)(=O)Nc1cc(NC(=O)c2ccc(-c3ccc4oc(C5C(C(N)=O)c6ccccc6C(=O)N5c5ccc(C6CC6)cc5)cc4c3)cc2)ccc1O (configuration not stated) | 0.27 |  | 25.6 |
| CN(c1ccc(C(=O)Nc2ccc(O)c(NS(C)(=O)=O)c2)cc1)c1ccc(C2C(C(N)=O)c3ccccc3C(=O)N2c2ccc(C(C)(C)C)c(Cl)c2)cc1 (configuration not stated) | 0.82 |  | 1.2 |
| CC(C)(C)c1ccc(N2C(=O)c3cc(F)ccc3C(C(N)=O)C2c2ccc3sc(-c4ccc(C(=O)Nc5ccc(O)c(C(N)=O)c5)cc4)cc3c2)cc1Cl (configuration not stated) | > 10 |  | 14.7 |
| CC(C)(C)c1ccc(N2C(=O)c3cc(F)ccc3C(C(N)=O)C2c2cc3cc(-c4ccc(C(=O)Nc5ccc(O)c(NS(C)(=O)=O)c5)cc4)ccc3s2)cc1Cl (configuration not stated) | 0.45 |  | 23.2 |
| CC(C)(C)c1ccc(N2C(=O)c3cc(F)ccc3C(C(N)=O)C2c2ccc3sc(-c4ccc(C(=O)Nc5ccc(O)c(NS(=O)(=O)C6CC6)c5)cc4)cc3c2)cc1Cl (configuration not stated) | > 10 |  | 7.7 |
| CC(C)(C)c1ccc(N2C(=O)c3ccccc3C(C(N)=O)C2c2cc3cc(-c4ccc(C(=O)Nc5ccc(O)c(NS(=O)(=O)C(F)(F)F)c5)cc4)ccc3o2)cc1Cl (configuration not stated) | > 10 |  | 20.2 |
